Values quoted from earlier work as cited in patent US9289440B2, “Intravenous formulation with water-soluble cocrystals of acetylsalicylic acid and theanine” (THEAPRIN PHARMACEUTICALS INC., priority 2009, dated 2016).
“Also recorded” adds a separate entry of the source.

Settings: FDA Reports 2006-2008, single patient reports

CC(=O)Oc1ccccc1C(=O)O [Aspegic, lysine acetylsalicylate]
side effect after drug was administered: cardio-respiratory arrest and ventricular fibrillation and died; also recorded: angina pectoris and recovered
